Assay type in all cases: functional
What all share (conditions): time 20-24 hrs

For assay [1], the system named is Staphylococcus aureus. The assay can be described thus: Antimicrobial activity against Staphylococcus aureus ATCC 25923 assessed as inhibition of visible growth measured after 20 to 24 hrs incubation by CLSI method.
Assay [2] relates to Staphylococcus epidermidis. The assay can be described thus: Antimicrobial activity against antibiotic-resistant Staphylococcus epidermidis ATCC 700296 assessed as inhibition of visible growth measured after 20 to 24 hrs incubation by CLSI method.
Assay [3] deals with Staphylococcus aureus. Kind of assay: Antimicrobial activity against antibiotic-resistant Staphylococcus aureus ATCC BAA-2312 assessed as inhibition of visible growth measured after 20 to 24 hrs incubation by CLSI method.
Another assay relates to Bacillus subtilis. Kind of assay: Antimicrobial activity against antibiotic-resistant Bacillus subtilis ATCC 6623 assessed as inhibition of visible growth measured after 20 to 24 hrs incubation by CLSI method.
For assay [4], the system named is Staphylococcus aureus. Kind of assay: Antimicrobial activity against antibiotic-resistant Staphylococcus aureus ATCC 33591 assessed as inhibition of visible growth measured after 20 to 24 hrs incubation by CLSI method.
Assay [5] relates to Staphylococcus aureus. Kind of assay: Antimicrobial activity against antibiotic-resistant Staphylococcus aureus ATCC 700699 assessed as inhibition of visible growth measured after 20 to 24 hrs incubation by CLSI method.
The test system of assay [6] is Enterococcus faecalis. Kind of assay: Antimicrobial activity against antibiotic-resistant Enterococcus faecalis ATCC 51299 assessed as inhibition of visible growth measured after 20 to 24 hrs incubation by CLSI method.
Assay [7] deals with Enterococcus faecalis. The assay can be described thus: Antimicrobial activity against antibiotic-susceptible Enterococcus faecalis ATCC 29212 assessed as inhibition of visible growth measured after 20 to 24 hrs incubation by CLSI method.
Assay [8] concerns Staphylococcus aureus. Kind of assay: Antimicrobial activity against antibiotic-resistant Staphylococcus aureus ATCC 33592 assessed as inhibition of visible growth measured after 20 to 24 hrs incubation by CLSI method.
The test system of another assay is Enterococcus faecium. The assay can be described thus: Antimicrobial activity against antibiotic-resistant Enterococcus faecium ATCC 700221 assessed as inhibition of visible growth measured after 20 to 24 hrs incubation by CLSI method.

In brackets after ≈: the same amount, converted by molar mass. Bounds are passed on as bounds.

Our source for the MIC values is ChEMBL document CHEMBL5365500, “Development and Antibacterial Properties of 4-[4-(Anilinomethyl)-3-phenylpyrazol-1-yl]benzoic Acid Derivatives as Fatty Acid Biosynthesis Inhibitors” (J Med Chem, 2023).

Broadly, the MIC is the smallest concentration in the dilution series that meets the test's criterion for growth inhibition. Turning to `O=C(O)c1ccc(-n2cc(CNc3cc(Cl)ccc3Cl)c(-c3cccc(F)c3)n2)cc1`, the MIC in the assay with Staphylococcus aureus [1] stood at 32 µg/mL (≈ 70.1 µM); in [2], 32 µg/mL (≈ 70.1 µM); with Staphylococcus aureus [3], 16 µg/mL (≈ 35.1 µM); in the assay on Bacillus subtilis it was 8 µg/mL (≈ 17.5 µM); in the assay on Staphylococcus aureus [4] it was 32 µg/mL (≈ 70.1 µM); with Staphylococcus aureus [5], 32 µg/mL (≈ 70.1 µM). The MIC with Enterococcus faecalis [6], in the assay on Enterococcus faecalis [7], in the assay with Staphylococcus aureus [8] and in the assay with Enterococcus faecium was 32 µg/mL (≈ 70.1 µM) throughout.

Turning to `Cc1cc(NCc2cn(-c3ccc(C(=O)O)cc3)nc2-c2ccc(F)cc2)ccc1Br`, the MIC in the assay on Staphylococcus aureus [1] was 4 µg/mL (≈ 8.33 µM); in assay [2], 4 µg/mL (≈ 8.33 µM); with Staphylococcus aureus [3] it was 2 µg/mL (≈ 4.16 µM); in the assay with Bacillus subtilis, 1 µg/mL (≈ 2.08 µM); in the assay with Staphylococcus aureus [4] it was 2 µg/mL (≈ 4.16 µM); with Staphylococcus aureus [5], 2 µg/mL (≈ 4.16 µM). The MIC was 8 µg/mL (≈ 16.7 µM) in the assay with Enterococcus faecalis [6], 16 µg/mL (≈ 33.3 µM) in the assay on Enterococcus faecalis [7], 4 µg/mL (≈ 8.33 µM) in the assay with Staphylococcus aureus [8] and 8 µg/mL (≈ 16.7 µM) in the assay on Enterococcus faecium.

`O=C(O)c1ccc(-n2cc(CNc3ccccc3)c(-c3ccc(F)c(F)c3)n2)cc1`: the minimum inhibitory concentration (MIC) was found to be 16 µg/mL (≈ 39.5 µM) in the assay with Staphylococcus aureus [1]; 16 µg/mL (≈ 39.5 µM) in assay [2]; 32 µg/mL (≈ 78.9 µM) in the assay on Staphylococcus aureus [3]; 8 µg/mL (≈ 19.7 µM) in the assay with Bacillus subtilis; 16 µg/mL (≈ 39.5 µM) with Staphylococcus aureus [4]; 32 µg/mL (≈ 78.9 µM) with Staphylococcus aureus [5]. The minimum inhibitory concentration (MIC) with Enterococcus faecalis [6] is greater than 32 µg/mL; in the assay with Enterococcus faecalis [7], greater than 32 µg/mL; with Staphylococcus aureus [8] it was 32 µg/mL (≈ 78.9 µM); with Enterococcus faecium, 32 µg/mL (≈ 78.9 µM).

As for `O=C(O)c1ccc(-n2cc(CNc3cc(F)c(F)c(F)c3)c(-c3cccc(F)c3)n2)cc1`, the MIC in the assay with Staphylococcus aureus [1] is 4 µg/mL (≈ 9.06 µM); in assay [2], 8 µg/mL (≈ 18.1 µM); in the assay on Staphylococcus aureus [3], 4 µg/mL (≈ 9.06 µM); with Bacillus subtilis, 4 µg/mL (≈ 9.06 µM); in the assay with Staphylococcus aureus [4], 1 µg/mL (≈ 2.27 µM); with Staphylococcus aureus [5], 8 µg/mL (≈ 18.1 µM). Moreover, the MIC was 32 µg/mL (≈ 72.5 µM) with Enterococcus faecalis [6], 32 µg/mL (≈ 72.5 µM) in the assay with Enterococcus faecalis [7], 4 µg/mL (≈ 9.06 µM) with Staphylococcus aureus [8] and 16 µg/mL (≈ 36.2 µM) in the assay on Enterococcus faecium.

Regarding `O=C(O)c1ccc(-n2cc(CNc3ccc(C(F)(F)F)cc3)c(-c3ccc(F)c(F)c3)n2)cc1`, the minimal inhibitory concentration (MIC) is 2 µg/mL (≈ 4.22 µM) in the assay on Staphylococcus aureus [1]; 4 µg/mL (≈ 8.45 µM) in assay [2]; 2 µg/mL (≈ 4.22 µM) in the assay on Staphylococcus aureus [3]; 1 µg/mL (≈ 2.11 µM) in the assay with Bacillus subtilis; 1 µg/mL (≈ 2.11 µM) in the assay with Staphylococcus aureus [4]; 4 µg/mL (≈ 8.45 µM) in the assay with Staphylococcus aureus [5]. Further, the minimal inhibitory concentration (MIC) was greater than 32 µg/mL with Enterococcus faecalis [6], greater than 32 µg/mL with Enterococcus faecalis [7], 2 µg/mL (≈ 4.22 µM) in the assay with Staphylococcus aureus [8] and 8 µg/mL (≈ 16.9 µM) with Enterococcus faecium.

`CC(C)c1ccc(NCc2cn(-c3ccc(C(=O)O)cc3)nc2-c2ccc(F)cc2)cc1`: the minimum inhibitory concentration (MIC) in the assay with Staphylococcus aureus [1] came out at 8 µg/mL (≈ 18.6 µM); in assay [2], 8 µg/mL (≈ 18.6 µM); with Staphylococcus aureus [3], 4 µg/mL (≈ 9.31 µM); in the assay with Bacillus subtilis it was 2 µg/mL (≈ 4.66 µM); in the assay on Staphylococcus aureus [4] it was 4 µg/mL (≈ 9.31 µM); with Staphylococcus aureus [5], 4 µg/mL (≈ 9.31 µM). In addition, the MIC came to 8 µg/mL (≈ 18.6 µM) in the assay with Enterococcus faecalis [6], 16 µg/mL (≈ 37.3 µM) with Enterococcus faecalis [7], 8 µg/mL (≈ 18.6 µM) in the assay with Staphylococcus aureus [8] and 4 µg/mL (≈ 9.31 µM) with Enterococcus faecium.

Regarding `O=C(O)c1ccc(-n2cc(CNc3ccc(F)c(Cl)c3)c(-c3cccc(F)c3)n2)cc1`, the MIC in the assay on Staphylococcus aureus [1] is 16 µg/mL (≈ 36.4 µM); in assay [2], 16 µg/mL (≈ 36.4 µM); in the assay with Staphylococcus aureus [3] it was 8 µg/mL (≈ 18.2 µM); with Bacillus subtilis, 4 µg/mL (≈ 9.09 µM); in the assay on Staphylococcus aureus [4] it was 8 µg/mL (≈ 18.2 µM); in the assay with Staphylococcus aureus [5], 16 µg/mL (≈ 36.4 µM). Moreover, the minimum inhibitory concentration (MIC) with Enterococcus faecalis [6] turned out to be 32 µg/mL (≈ 72.8 µM); with Enterococcus faecalis [7], 32 µg/mL (≈ 72.8 µM); with Staphylococcus aureus [8], 16 µg/mL (≈ 36.4 µM); in the assay on Enterococcus faecium, 32 µg/mL (≈ 72.8 µM).

Regarding `O=C(O)c1ccc(-n2cc(CNc3cc(Cl)cc(Cl)c3)c(-c3ccc(F)cc3)n2)cc1`, the MIC was 1 µg/mL (≈ 2.19 µM) in the assay with Staphylococcus aureus [1]; 2 µg/mL (≈ 4.38 µM) in assay [2]; 1 µg/mL (≈ 2.19 µM) with Staphylococcus aureus [3]; 0.5 µg/mL (≈ 1.1 µM) in the assay with Bacillus subtilis; 1 µg/mL (≈ 2.19 µM) in the assay on Staphylococcus aureus [4]; 2 µg/mL (≈ 4.38 µM) in the assay with Staphylococcus aureus [5]. In addition, the minimum inhibitory concentration (MIC) in the assay on Enterococcus faecalis [6] came to 4 µg/mL (≈ 8.77 µM); with Enterococcus faecalis [7] it was 4 µg/mL (≈ 8.77 µM); in the assay on Staphylococcus aureus [8], 1 µg/mL (≈ 2.19 µM); with Enterococcus faecium, 4 µg/mL (≈ 8.77 µM).
